Active and inactive are the calls of the source. No cut-off for these calls is given here.
Experiments:
PC-12 [1] = assay: Induction of neurite outgrowth in rat PC12 cells in presence of nerve growth factor at 0.1 to 10.0 uM; assay type: functional, cell-based
PC-12 [2] = assay: Induction of neurite outgrowth in rat PC12 cells in absence of nerve growth factor at 0.1 to 10.0 uM; assay type: functional, cell-based

## CC1=CCC[C@@H]2[C@]3(CCc4ccoc4)C(=O)O[C@H](C[C@@]12C)[C@H]3C
PC-12 [1]
  Activity: inactive
PC-12 [2]
  Activity: inactive

## CO[C@H]1O[C@@H]2C[C@@]3(C)C(C)=CCC[C@@H]3[C@@]1(CCc1ccoc1)[C@@H]2C
PC-12 [1]
  Activity: inactive
PC-12 [2]
  Activity: inactive

Source: ChEMBL document CHEMBL1140173, “Clerodane diterpenoids with NGF-potentiating activity from Ptychopetalum olacoides” (J Nat Prod, 2008)
